Target: T1, Myeloperoxidase (Homo sapiens, UniProt P05164)
T1 sequence (P05164 whole entry): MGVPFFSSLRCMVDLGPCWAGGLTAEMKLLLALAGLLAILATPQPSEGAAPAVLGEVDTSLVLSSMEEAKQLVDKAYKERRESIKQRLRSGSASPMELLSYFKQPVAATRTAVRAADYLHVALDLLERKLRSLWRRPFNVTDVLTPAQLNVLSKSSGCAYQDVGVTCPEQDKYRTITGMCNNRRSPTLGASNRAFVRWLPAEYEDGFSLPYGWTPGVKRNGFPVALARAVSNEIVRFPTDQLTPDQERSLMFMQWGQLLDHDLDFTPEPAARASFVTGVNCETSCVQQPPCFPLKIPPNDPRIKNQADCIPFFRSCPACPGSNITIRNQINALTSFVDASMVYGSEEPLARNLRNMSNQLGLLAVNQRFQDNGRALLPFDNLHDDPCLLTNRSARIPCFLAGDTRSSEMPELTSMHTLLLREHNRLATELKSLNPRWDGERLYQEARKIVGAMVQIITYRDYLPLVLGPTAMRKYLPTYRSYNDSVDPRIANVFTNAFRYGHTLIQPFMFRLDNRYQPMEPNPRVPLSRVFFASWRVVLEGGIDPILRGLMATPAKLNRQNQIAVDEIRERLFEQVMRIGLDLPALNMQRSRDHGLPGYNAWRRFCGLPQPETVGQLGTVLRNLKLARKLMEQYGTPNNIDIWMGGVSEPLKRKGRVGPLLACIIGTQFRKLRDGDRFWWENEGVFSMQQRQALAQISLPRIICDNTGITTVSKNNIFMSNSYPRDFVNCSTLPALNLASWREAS
Test: Inhibition of human MPO using H2O2 as substrate measured after 15 mins by chemiluminescence based assay

SMILES	IC50 [nM]
O=c1[nH]c(=S)n(Cc2ccccc2[C@@H]2C[C@H](C(F)F)CCN2)c2cc[nH]c12	1
O=c1[nH]c(=S)n(Cc2ccccc2[C@@H]2C[C@H](C(F)(F)F)CCN2)c2nc[nH]c12	2
O=c1[nH]c(=S)n(Cc2ccccc2[C@@H]2CC(F)(F)CCN2)c2cc[nH]c12	3
O=c1[nH]c(=S)n(Cc2ccccc2[C@H]2C[C@H](C(F)(F)F)CCN2)c2nc[nH]c12	3
O=c1[nH]c(=S)n(Cc2ccccc2[C@@H]2CCCCN2)c2cc[nH]c12	2
O=c1[nH]c(=S)n(Cc2ccccc2[C@H]2C[C@@H](C(F)(F)F)CCN2)c2cc[nH]c12	2

From ChEMBL document CHEMBL5634194, “Novel Myeloperoxidase Inhibitors for Treating Multiple Diseases” (ACS Med Chem Lett, 2024)
